Measurements taken from PubChem BioAssay (NCI).
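GI50 marks 50% less growth. TGI is the concentration that stops growth completely.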

Key:
Assay in all cases: NCI tumour cell line growth inhibition, 384-well format
DU-145 prostate = tested on: DU-145 prostate
NCI-H322M lung = tested on: NCI-H322M lung
TK-10 renal = tested on: TK-10 renal
BT-549 breast = tested on: BT-549 breast
NCI/ADR-RES ovarian = tested on: NCI/ADR-RES ovarian
HT29 colon = tested on: HT29 colon
SK-OV-3 ovarian = tested on: SK-OV-3 ovarian
PC-3 prostate = tested on: PC-3 prostate
SF-295 CNS = tested on: SF-295 CNS
A498 renal = tested on: A498 renal
CAKI-1 renal = tested on: CAKI-1 renal
NCI-H23 lung = tested on: NCI-H23 lung
MALME-3M melanoma = tested on: MALME-3M melanoma
A549 NSCLC = tested on: A549 NSCLC
U251 glioblastoma = tested on: U251 glioblastoma
SK-MEL-5 melanoma = tested on: SK-MEL-5 melanoma
IGROV1 ovarian = tested on: IGROV1 ovarian
SK-MEL-28 melanoma = tested on: SK-MEL-28 melanoma
MDA-MB-231 breast = tested on: MDA-MB-231 breast
OVCAR-5 ovarian = tested on: OVCAR-5 ovarian
T-47D breast = tested on: T-47D breast
SW-620 colon = tested on: SW-620 colon
SNB-19 CNS = tested on: SNB-19 CNS
HCC-2998 colon = tested on: HCC-2998 colon
OVCAR-8 ovarian = tested on: OVCAR-8 ovarian
KM12 colon = tested on: KM12 colon
786-0 renal = tested on: 786-0 renal
HL-60(TB) leukemia = tested on: HL-60(TB) leukemia
MDA-MB-435 melanoma = tested on: MDA-MB-435 melanoma
RPMI-8226 leukemia = tested on: RPMI-8226 leukemia
OVCAR-3 ovarian = tested on: OVCAR-3 ovarian
HS 578T breast = tested on: HS 578T breast
NCI-H460 NSCLC = tested on: NCI-H460 NSCLC
UACC-257 melanoma = tested on: UACC-257 melanoma
MDA-MB-468 breast = tested on: MDA-MB-468 breast
HOP-92 NSCLC = tested on: HOP-92 NSCLC
NCI-H226 lung = tested on: NCI-H226 lung
MOLT-4 leukemia = tested on: MOLT-4 leukemia
SF-539 CNS = tested on: SF-539 CNS
HCT-15 colon = tested on: HCT-15 colon
UACC-62 melanoma = tested on: UACC-62 melanoma
HOP-62 NSCLC = tested on: HOP-62 NSCLC
MCF7 breast = tested on: MCF7 breast
ACHN renal = tested on: ACHN renal
SNB-75 CNS = tested on: SNB-75 CNS
SR leukemia = tested on: SR leukemia
M14 melanoma = tested on: M14 melanoma
OVCAR-4 ovarian = tested on: OVCAR-4 ovarian
NCI-H522 lung = tested on: NCI-H522 lung
RXF 393 renal = tested on: RXF 393 renal
EKVX NSCLC = tested on: EKVX NSCLC
SF-268 CNS = tested on: SF-268 CNS
CCRF-CEM leukemia = tested on: CCRF-CEM leukemia
SK-MEL-2 melanoma = tested on: SK-MEL-2 melanoma
COLO 205 colon = tested on: COLO 205 colon

For N#C[C@@H]1C(n2ccc(N)nc2=O)O[C@H](CO)[C@H]1O (some centres undefined), the GI50 (DU-145 prostate) was 0.54 µM, the TGI (DU-145 prostate) was 35.3 µM and the GI50 (NCI-H322M lung) was 45.8 µM. The TGI (NCI-H322M lung) was greater than 100 µM, the GI50 (TK-10 renal) was greater than 100 µM and the TGI (TK-10 renal) was greater than 100 µM. The GI50 (BT-549 breast) was 3.56 µM, the TGI (BT-549 breast) was greater than 100 µM and the GI50 (NCI/ADR-RES ovarian) was 6.95 µM. The TGI (NCI/ADR-RES ovarian) was 32.1 µM, the GI50 (HT29 colon) was greater than 100 µM and the TGI (HT29 colon) was greater than 100 µM. For the same compound, the GI50 (SK-OV-3 ovarian) was 1.32 µM, the TGI (SK-OV-3 ovarian) was 21.9 µM and the GI50 (PC-3 prostate) was 36.4 µM. It also gave a TGI (PC-3 prostate) greater than 100 µM, a GI50 (SF-295 CNS) of 2.22 µM and a TGI (SF-295 CNS) of 44.8 µM. It also gave a GI50 (A498 renal) of 0.688 µM, a TGI (A498 renal) of 14.4 µM and a GI50 (CAKI-1 renal) of 20 µM. For the same compound, the TGI (CAKI-1 renal) was greater than 100 µM, the GI50 (NCI-H23 lung) was 0.569 µM and the TGI (NCI-H23 lung) was 12.2 µM. For the same compound, the GI50 (MALME-3M melanoma) was 1.21 µM, the TGI (MALME-3M melanoma) was 7.34 µM and the GI50 (A549 NSCLC) was 1.25 µM. For the same compound, the TGI (A549 NSCLC) was 71 µM, the GI50 (U251 glioblastoma) was 3.78 µM and the TGI (U251 glioblastoma) was 67.7 µM. For the same compound, the GI50 (SK-MEL-5 melanoma) was 3.52 µM, the TGI (SK-MEL-5 melanoma) was 44.4 µM and the GI50 (IGROV1 ovarian) was greater than 100 µM. The TGI (IGROV1 ovarian) was greater than 100 µM, the GI50 (SK-MEL-28 melanoma) was 2.34 µM and the TGI (SK-MEL-28 melanoma) was 9.71 µM. It also gave a GI50 (MDA-MB-231 breast) of 17.1 µM, a TGI (MDA-MB-231 breast) greater than 100 µM and a GI50 (OVCAR-5 ovarian) of 37.1 µM. It also gave a TGI (OVCAR-5 ovarian) greater than 100 µM, a GI50 (T-47D breast) greater than 100 µM and a TGI (T-47D breast) greater than 100 µM. The GI50 (SW-620 colon) was 34.9 µM, the TGI (SW-620 colon) was greater than 100 µM and the GI50 (SNB-19 CNS) was 0.849 µM. It also gave a TGI (SNB-19 CNS) of 47.4 µM, a GI50 (HCC-2998 colon) of 0.893 µM and a TGI (HCC-2998 colon) of 18.4 µM. It also gave a GI50 (OVCAR-8 ovarian) of 0.962 µM, a TGI (OVCAR-8 ovarian) of 20.9 µM and a GI50 (KM12 colon) of 8.14 µM. The TGI (KM12 colon) was greater than 100 µM, the GI50 (786-0 renal) was 0.418 µM and the TGI (786-0 renal) was 46.8 µM. The GI50 (HL-60(TB) leukemia) was 0.315 µM, the TGI (HL-60(TB) leukemia) was 0.728 µM and the GI50 (MDA-MB-435 melanoma) was 85 µM. The TGI (MDA-MB-435 melanoma) was greater than 100 µM, the GI50 (RPMI-8226 leukemia) was 6.73 µM and the TGI (RPMI-8226 leukemia) was 55.9 µM. For the same compound, the GI50 (OVCAR-3 ovarian) was 13.9 µM, the TGI (OVCAR-3 ovarian) was greater than 100 µM and the GI50 (HS 578T breast) was 2.01 µM. It also gave a TGI (HS 578T breast) greater than 100 µM, a GI50 (NCI-H460 NSCLC) of 0.283 µM and a TGI (NCI-H460 NSCLC) of 10.5 µM. The GI50 (UACC-257 melanoma) was 31.9 µM, the TGI (UACC-257 melanoma) was greater than 100 µM and the GI50 (MDA-MB-468 breast) was 0.314 µM. For the same compound, the TGI (MDA-MB-468 breast) was 0.824 µM, the GI50 (HOP-92 NSCLC) was 3.17 µM and the TGI (HOP-92 NSCLC) was 93.8 µM. The GI50 (NCI-H226 lung) was 3.7 µM, the TGI (NCI-H226 lung) was 32.4 µM and the TGI (MOLT-4 leukemia) was 0.0141 µM. The GI50 (SF-539 CNS) was 4.18 µM, the TGI (SF-539 CNS) was greater than 100 µM and the GI50 (HCT-15 colon) was 9.45 µM. The TGI (HCT-15 colon) was greater than 100 µM, the GI50 (UACC-62 melanoma) was 3.35 µM and the TGI (UACC-62 melanoma) was 34.4 µM. It also gave a GI50 (HOP-62 NSCLC) of 0.34 µM, a TGI (HOP-62 NSCLC) of 16.7 µM and a GI50 (MCF7 breast) of 1.58 µM. The TGI (MCF7 breast) was greater than 100 µM, the GI50 (ACHN renal) was 14.5 µM and the TGI (ACHN renal) was 35.6 µM. It also gave a GI50 (SNB-75 CNS) of 13.8 µM, a TGI (SNB-75 CNS) of 85.8 µM and a GI50 (SR leukemia) of 1.92 µM. The TGI (SR leukemia) was 3.54 µM, the GI50 (M14 melanoma) was 0.543 µM and the TGI (M14 melanoma) was 4.47 µM. For the same compound, the GI50 (OVCAR-4 ovarian) was greater than 100 µM, the TGI (OVCAR-4 ovarian) was greater than 100 µM and the GI50 (NCI-H522 lung) was 2.03 µM. The TGI (NCI-H522 lung) was 79.6 µM, the GI50 (RXF 393 renal) was 24.4 µM and the TGI (RXF 393 renal) was 70.3 µM. The GI50 (EKVX NSCLC) was greater than 100 µM, the TGI (EKVX NSCLC) was greater than 100 µM and the GI50 (SF-268 CNS) was 0.632 µM. It also gave a TGI (SF-268 CNS) of 27.7 µM, a GI50 (CCRF-CEM leukemia) of 0.0275 µM and a TGI (CCRF-CEM leukemia) of 0.125 µM. For the same compound, the GI50 (SK-MEL-2 melanoma) was 2.75 µM, the TGI (SK-MEL-2 melanoma) was 7.76 µM and the GI50 (COLO 205 colon) was 2.28 µM. The TGI (COLO 205 colon) was 17.7 µM.
